Test results as given in patent US12691093B2 (THE TRUSTEES OF INDIANA UNIVERSITY, priority 2020, dated 2026).

Test system: MC38-OVA cells
Test: CD8+ T cell cytotoxicity assay (OT-I CD8+ T cells co-cultured with MC38-OVA cells, luciferase)
Type: cell-based, mouse
Conditions: each drug 5.0 μM; in vitro luciferase assay
Experimental: MC38-OVA cells expressing luciferase were co-cultured with OT-I CD8+ T cells in the presence of each drug (5.0 μM) and the T cell-mediated cytotoxicity was measured by the luciferase assay. Difference (log 2): (log 2 [relative viability] >1; P<0.05). Relative viability=(tumor cell viability of treated group)/(tumor cell viability of control group). […] Statistical analysis was conducted using 1-way ANOVA.
T cells were then centrifuged and cultured in RPMI1640 medium containing of 2 ng/ml murine IL2, 10% FBS and 1% PS.To measure the cytotoxicity of CD8+ T cells, 50,000 enriched CD8+ T cells were mixed in 96-well plates with MC38-OVA cells at ratios of 5:1, 1:1 or 1:5. […] We assessed the killing efficiency by measuring the activity of luciferase (#E1910, Dual-Luciferase® Reporter Assay System, Promega) after 6 hours of co-culture of the T-cells together with the tumor cells.
The CD8+ T cells were freshly isolated from the spleen of OT-I mouse (C57BL/6-Tg (TcraTcrb) 1100Mjb/J).

| Compound | ranking in screen of antigen-specific OT-I CD8+ T-cell killing of MC38-OVA tumor cells |
| --- | --- |
| icariin | top-ranked compounds that most potently affected the T-cell activity |
| COc1ccc(-c2coc3cc(O)cc(O)c3c2=O)cc1 [biochanin A] | top-ranked compounds that most potently affected the T-cell activity |
